For five cell lines, relative viability results are on record in the supplement of paper PMC10307832.

Holding throughout (test): relative viability (nuclei count vs DMSO), 5 days (fraction); higher = more cells survive
Compound in the assay “Ispinesib + Palbociclib”: Cc1ccc(C(=O)N(CCCN)[C@@H](c2nc3cc(Cl)ccc3c(=O)n2Cc2ccccc2)C(C)C)cc1 [Ispinesib] + CC(=O)c1c(C)c2cnc(Nc3ccc(N4CCNCC4)cn3)nc2n(C2CCCC2)c1=O [Palbociclib] (partner 0.5 µM)
The essentials:
(§1)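 After 5 days of treatment, lung cancer cells in 1536-well plates were fixed and stained in a single step (final 0.05% Triton X-100, 1% formaldehyde, 1 ug/ml Hoechst) and their nuclei counted on 4× images. Treatment had been applied by pin tool the day after seeding as one drug alone or as a fixed anchor-drug dose with five library-drug doses (not always all listed) in √10 steps. Relative viability is the nuclei count of treated wells divided by that of vehicle wells, and values are medians of duplicate plates.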

Compound in the assay “Linsitinib + Navitoclax”: C[C@]1(O)C[C@@H](c2nc(-c3ccc4ccc(-c5ccccc5)nc4c3)c3c(N)nccn32)C1 [Linsitinib] + CC1(C)CCC(c2ccc(Cl)cc2)=C(CN2CCN(c3ccc(C(=O)NS(=O)(=O)c4ccc(N[C@H](CCN5CCOCC5)CSc5ccccc5)c(S(=O)(=O)C(F)(F)F)c4)cc3)CC2)C1 [Navitoclax] (partner 0.5 µM)
The essentials:
as §1

Compound in the assay “Ispinesib + AZD7762”: Cc1ccc(C(=O)N(CCCN)[C@@H](c2nc3cc(Cl)ccc3c(=O)n2Cc2ccccc2)C(C)C)cc1 [Ispinesib] + NC(=O)Nc1cc(-c2cccc(F)c2)sc1C(=O)N[C@H]1CCCNC1 [AZD7762] (partner 0.2 µM)
An outline of the steps:
as §1

Compound in the assay “Ispinesib + Vorinostat”: Cc1ccc(C(=O)N(CCCN)[C@@H](c2nc3cc(Cl)ccc3c(=O)n2Cc2ccccc2)C(C)C)cc1 [Ispinesib] + O=C(CCCCCCC(=O)Nc1ccccc1)NO [Vorinostat] (partner 1 µM)
The essentials:
as §1

For the cell line NCI-H1944, the relative viability in the assay with Ispinesib + Palbociclib (first compound 0.001 µM) was determined as 0.347; with Ispinesib + Palbociclib (first compound 0.003162 µM), 0.35; with Ispinesib + Palbociclib (first compound 0.01 µM), 0.353; with Ispinesib + Palbociclib (first compound 0.03162 µM), 0.279; with Ispinesib + Palbociclib (first compound 0.1 µM), 0.304; in the assay with Linsitinib + Navitoclax (first compound 0.01 µM), 1.02. Besides, the relative viability with Linsitinib + Navitoclax (first compound 0.03162 µM) worked out at 1.1; with Linsitinib + Navitoclax (first compound 0.1 µM), 1.04; with Linsitinib + Navitoclax (first compound 0.3162 µM), 0.93; in the assay with Linsitinib + Navitoclax (first compound 1 µM), 0.917; in the assay with Ispinesib + AZD7762 (first compound 0.001 µM) it was 0.443; with Ispinesib + AZD7762 (first compound 0.003162 µM) it was 0.483. In addition, the relative viability with Ispinesib + AZD7762 (first compound 0.01 µM) was determined as 0.482; with Ispinesib + AZD7762 (first compound 0.03162 µM) it was 0.32; in the assay with Ispinesib + AZD7762 (first compound 0.1 µM), 0.189; with Ispinesib + Vorinostat (first compound 0.001 µM) it was 0.671; with Ispinesib + Vorinostat (first compound 0.003162 µM), 0.496; with Ispinesib + Vorinostat (first compound 0.01 µM) it was 0.575. Besides, the results for the relative viability with Ispinesib + Vorinostat (first compound 0.03162 µM) and with Ispinesib + Vorinostat (first compound 0.1 µM) were 0.345 and 0.152, respectively.

Regarding A-427, the relative viability came to 0.53 in the assay with Ispinesib + Palbociclib (first compound 0.001 µM); 0.538 with Ispinesib + Palbociclib (first compound 0.003162 µM); 0.55 with Ispinesib + Palbociclib (first compound 0.01 µM); 0.322 with Ispinesib + Palbociclib (first compound 0.03162 µM); 0.282 with Ispinesib + Palbociclib (first compound 0.1 µM); 0.97 with Linsitinib + Navitoclax (first compound 0.01 µM). In addition, the relative viability is 0.964 in the assay with Linsitinib + Navitoclax (first compound 0.03162 µM); 0.999 with Linsitinib + Navitoclax (first compound 0.1 µM); 0.967 in the assay with Linsitinib + Navitoclax (first compound 1 µM); 0.853 with Ispinesib + AZD7762 (first compound 0.001 µM); 0.817 with Ispinesib + AZD7762 (first compound 0.003162 µM); 0.976 with Ispinesib + AZD7762 (first compound 0.01 µM). The relative viability with Ispinesib + AZD7762 (first compound 0.03162 µM) turned out to be 0.462; with Ispinesib + AZD7762 (first compound 0.1 µM), 0.32; with Ispinesib + Vorinostat (first compound 0.001 µM), 0.878; with Ispinesib + Vorinostat (first compound 0.003162 µM), 0.953; in the assay with Ispinesib + Vorinostat (first compound 0.01 µM), 0.981; with Ispinesib + Vorinostat (first compound 0.03162 µM), 0.385. For the same cell line, in the assay with Ispinesib + Vorinostat (first compound 0.1 µM), the relative viability amounted to 0.217.

Consider NCI-H1755, for which the relative viability with Ispinesib + Palbociclib (first compound 0.001 µM) turned out to be 0.467; with Ispinesib + Palbociclib (first compound 0.003162 µM) it was 0.451; in the assay with Ispinesib + Palbociclib (first compound 0.01 µM) it was 0.457; with Ispinesib + Palbociclib (first compound 0.03162 µM), 0.431; with Ispinesib + Palbociclib (first compound 0.1 µM), 0.463; with Linsitinib + Navitoclax (first compound 0.01 µM), 0.974. Further, the relative viability in the assay with Linsitinib + Navitoclax (first compound 0.03162 µM) was 1.04; with Linsitinib + Navitoclax (first compound 0.1 µM), 0.986; with Linsitinib + Navitoclax (first compound 0.3162 µM), 0.839; with Linsitinib + Navitoclax (first compound 1 µM) it was 0.905; with Ispinesib + AZD7762 (first compound 0.001 µM) it was 0.489; with Ispinesib + AZD7762 (first compound 0.003162 µM) it was 0.437. For the same cell line, the relative viability came to 0.433 with Ispinesib + AZD7762 (first compound 0.01 µM); 0.408 with Ispinesib + AZD7762 (first compound 0.03162 µM); 0.274 with Ispinesib + AZD7762 (first compound 0.1 µM); 0.726 in the assay with Ispinesib + Vorinostat (first compound 0.001 µM); 0.789 in the assay with Ispinesib + Vorinostat (first compound 0.003162 µM); 0.937 in the assay with Ispinesib + Vorinostat (first compound 0.01 µM). Also, the relative viability with Ispinesib + Vorinostat (first compound 0.03162 µM) was 0.636; in the assay with Ispinesib + Vorinostat (first compound 0.1 µM) it was 0.419.

On to NCI-H2085, for which the relative viability with Ispinesib + Palbociclib (first compound 0.001 µM) came to 0.384; with Ispinesib + Palbociclib (first compound 0.003162 µM), 0.411; with Ispinesib + Palbociclib (first compound 0.01 µM), 0.481; with Ispinesib + Palbociclib (first compound 0.03162 µM), 0.469; in the assay with Ispinesib + Palbociclib (first compound 0.1 µM) it was 0.402; in the assay with Linsitinib + Navitoclax (first compound 0.01 µM), 1.03. Moreover, the relative viability in the assay with Linsitinib + Navitoclax (first compound 0.03162 µM) was 1.11; with Linsitinib + Navitoclax (first compound 0.1 µM), 1.22; with Linsitinib + Navitoclax (first compound 0.3162 µM), 1.07; with Linsitinib + Navitoclax (first compound 1 µM) it was 1.2; with Ispinesib + AZD7762 (first compound 0.001 µM) it was 0.962; with Ispinesib + AZD7762 (first compound 0.003162 µM), 1.08. In addition, the relative viability in the assay with Ispinesib + AZD7762 (first compound 0.01 µM) was 1.07; with Ispinesib + AZD7762 (first compound 0.03162 µM), 0.806; with Ispinesib + AZD7762 (first compound 0.1 µM), 0.466; in the assay with Ispinesib + Vorinostat (first compound 0.001 µM), 0.773; in the assay with Ispinesib + Vorinostat (first compound 0.003162 µM) it was 0.762; in the assay with Ispinesib + Vorinostat (first compound 0.01 µM), 0.864. In addition, the values for the relative viability with Ispinesib + Vorinostat (first compound 0.03162 µM) and with Ispinesib + Vorinostat (first compound 0.1 µM) were 0.594 and 0.429, respectively.

For HOP-62, the relative viability was found to be 0.448 with Ispinesib + Palbociclib (first compound 0.001 µM); 0.548 in the assay with Ispinesib + Palbociclib (first compound 0.003162 µM); 0.617 in the assay with Ispinesib + Palbociclib (first compound 0.01 µM); 0.516 with Ispinesib + Palbociclib (first compound 0.03162 µM); 0.388 with Ispinesib + Palbociclib (first compound 0.1 µM); 1.08 in the assay with Linsitinib + Navitoclax (first compound 0.01 µM). Further, the relative viability in the assay with Linsitinib + Navitoclax (first compound 0.03162 µM) worked out at 1.12; in the assay with Linsitinib + Navitoclax (first compound 0.1 µM), 1.13; with Linsitinib + Navitoclax (first compound 0.3162 µM), 0.636; with Linsitinib + Navitoclax (first compound 1 µM), 0.823; in the assay with Ispinesib + AZD7762 (first compound 0.001 µM), 0.441; with Ispinesib + AZD7762 (first compound 0.003162 µM), 0.848. Further, the relative viability with Ispinesib + AZD7762 (first compound 0.01 µM) is 0.679; with Ispinesib + AZD7762 (first compound 0.03162 µM) it was 0.482; with Ispinesib + AZD7762 (first compound 0.1 µM), 0.214; in the assay with Ispinesib + Vorinostat (first compound 0.001 µM), 0.685; with Ispinesib + Vorinostat (first compound 0.003162 µM), 0.631; with Ispinesib + Vorinostat (first compound 0.01 µM), 0.949. Besides, the figures for the relative viability in the assay with Ispinesib + Vorinostat (first compound 0.03162 µM) and with Ispinesib + Vorinostat (first compound 0.1 µM) were 0.667 and 0.25, respectively.
